Common to all, as to type: in vivo, C57/B6 mice
The subject of assay [1] is bacterial populations of cecal contents. The assay is described as follows: RAPD-PCR characterization of the microbial population in cecal contents. The following applies: DNA from cecal contents; primers 1254, OPL-02, OPL-12. The method, then: (§1) Approximately 10 mg of fecal or cecal samples were suspended in a solution containing 500 μl of extraction buffer (200 mM Tris (pH 8.0), 200 mM NaCl, 20 mM EDTA), 210 μl of 20% SDS, 500 μl of a mixture of phenol:chloroform (pH 7.9, 24:24), and 500 μl of a slurry of 0.1 mm-diameter zirconia beads. Cells were lysed by mechanical disruption with a bead beater set on high for 2 min at room temperature, followed by extraction with phenol:chloroform (pH 7.9, 24:24), and precipitation with isopropanol. After the sample was suspended in 100 μl of TE buffer, the extraction products were further purified using a modified protocol from the ExtractMaster Fecal DNA extraction kit (Epicentre Technologies, Madison Wis.). Residual protein was precipitated using the Protein Precipitation reagent and inhibitors were removed through an Inhibitor Removal Resin spin column. The final product was suspended in 100 μl of TE buffer.
Characterization of the microbial population in the fecal samples was performed using random amplified polymorphic DNA PCR(RAPD-PCR). […] The gels were stained with ethidium bromide and imaging was analyzed using imaged. […]
The positive control (+) was DNA from P. acnes strain VPI 0389. […] The letters A, B, C over columns C10, P1, and P2, respectively, were analyzed be measuring luminescence (see FIGS. 9A-B). […]

For assay [2], the system named is Bacteroidetes and Firmicutes in the cecal microbiota. The assay is described as follows: Phylum-level analysis of cecal bacterial populations by 454 sequencing of 16S rRNA V3 region. The conditions noted are these: cecal contents, Mann-Whitney U-test. The method, then:
Approximately 10 mg of fecal or cecal samples were suspended in a solution containing 500 μl of extraction buffer (200 mM Tris (pH 8.0), 200 mM NaCl, 20 mM EDTA), 210 μl of 20% SDS, 500 μl of a mixture of phenol:chloroform (pH 7.9, 24:24), and 500 μl of a slurry of 0.1 mm-diameter zirconia beads. Cells were lysed by mechanical disruption with a bead beater set on high for 2 min at room temperature, followed by extraction with phenol:chloroform (pH 7.9, 24:24), and precipitation with isopropanol. […]
Phylum-level analysis of bacterial populations in […] mice. […] Mouse cecal contents were analyzed by 454 pryosequencing (Roche). […] For this experiment, the sequencing run produced 555,233 barcoded sequences with an average read length of 188±2.5 base pairs, an average read/barcode of 5784±676, and a read quality of 35. […] Order-level sequence data were summated to the phylum level and analyzed. […]
In another analysis, the proportion of all of the Eubacteria detected that were represented by the Firmicutes was examined. As shown in FIGS. 13A-B, % body fat measured by densitometry of the control and STAT mice (A) correlates with the ratio of Firmicute/Eubacteria as determined at the family level by 454 sequencing (B). […]

In assay [3] the test system is Butyryl CoA transferase (BCoAT)-encoding genes. Kind of assay: Butyryl CoA transferase (BCoAT) gene qPCR on cecal specimens. The conditions noted are these: cecal samples. How it is done:
as §1
To test the effect of colonic microbiota on butyrate metabolism, a PCR assay was performed to detect genes encoding an enzyme, Butyryl CoA transferase (BCoAT), regardless of the taxonomic origin of the gene. The following primers were used: BCoATscrF […] (SEQ ID NO: 11) and BCoATscrR […] (SEQ ID NO: 12). BCoAT plays a central role in butyrate metabolism, which is an important short-chain fatty acid (SCFA) in colonic metabolism and provides energy to colonocytes (FIG. 14). […]
(In qPCR the cycle at which signal appears reflects the starting amount.)

The test system of assay [4] is total fecal eubacterial and fungal levels. The assay is described as follows: Total microbial counts in fecal pellets by qPCR (16S rRNA, fungal ITS2). The method, then:
At approximately weekly intervals, a fresh fecal pellet was collected from each individual mouse and frozen at −80° C. until DNA could be extracted. At the time of sacrifice, a fecal pellet was collected, as well as the cecal contents.
as §1, with “Residual protein was precipitated using the Protein Precipitation reagent and inhibitors were removed through an Inhibitor Removal Resin spin column. The final product was suspended in 100 μl of TE buffer.” left out
Analysis of total microbial counts in STAT Mice. […] This possibility was addressed by examining total fecal eubacterial levels in penicillin-treated and control mice by a standardized quantitative PCR (qPCR) using primers […] […] Total fungal levels were determined by qPCR using primers directed to the conserved ITS2 region in the fungal rrn operon ITS1F […] […]

Assay [5] is described as follows: Body composition (fat mass, lean mass, % body fat, bone mineral density) by DEXA in sub-therapeutic antibiotic treated (STAT) mice. The following applies: at 6 to 9 weeks, sub-therapeutic dose in drinking water, vs control mice. From the text: C57/B6 mice were obtained at weaning (21 days) from Jackson Laboratories (Bar Harbor, Me.). They were weighed and then distributed in cages so that the mean weights of the mice in each cage were equal. The mice were then allowed to adjust to the NYU animal facility. At day 23 of life, the antibiotic-exposure experiment began. Animals were allowed ad libitum access to food and water and maintained with a 12-hour light/dark cycle. The mice were fed standard laboratory chow (Purina Mills International Diet # 5001). These conditions were continued until the time of sacrifice.
Mice were given standard water (pH 6.8) or water containing the following antimicrobial agents (at sub-therapeutic levels) in groups of 5-10 mice per experimental condition.
Body composition (fat mass, lean mass, percent [%] body fat) was determined using dual energy X-ray absorptiometry (DEXA) with a Lunar PIXImus II mouse densitometer (PIXImus, Fitchburg, Wis.) at the time of sacrifice. Each mouse was scanned individually. Data collected from the scan included fat and lean body mass, percent body fat, and bone mineral density.
Since maximal growth of mice in these experiments was during the first 2 weeks after weaning, a group of mice were sacrificed at two weeks, and bone mineral density (BMD) and fat phenotypes assessed. […]

Take `CN[C@H](CC(C)C)C(=O)N[C@H]1C(=O)N[C@@H](CC(N)=O)C(=O)N[C@H]2C(=O)N[C@H]3C(=O)N[C@H](C(=O)N[C@H](C(=O)O)c4cc(O)cc(O)c4-c4cc3ccc4O)[C@H](O)c3ccc(c(Cl)c3)Oc3cc2cc(c3O[C@@H]2O[C@H](CO)[C@@H](O)[C@H](O)[C@H]2O[C@H]2C[C@](C)(N)[C@H](O)[C@H](C)O2)Oc2ccc(cc2Cl)[C@H]1O` [vancomycin, Vancomycin]: the “RAPD-PCR products compared to control mice” value in assay [1] is “varying sets of bands”. In addition, the “Firmicutes and B/F ratio compared to the controls” value in assay [2] is reported as “statistically significant”.

As to Penicillin, in assay [3], the “BCoAT densities compared to controls” value was “increase”. For the same molecule, the “number of copies of bacterial or fungal rrn elements vs control” value in assay [4] was “no significant difference”. Further, the “RAPD-PCR products compared to control mice” value in assay [1] is on record as “clear differences”. Moreover, the “more fat mass than controls (normalized mean fat mass)” value in assay [5] is reported as 22.9±8.1%.

`CN(C)[C@@H]1C(O)=C(C(N)=O)C(=O)[C@@]2(O)C(O)=C3C(=O)c4c(O)ccc(Cl)c4[C@@](C)(O)[C@H]3C[C@@H]12` [chlortetracycline, Chlortetracycline]: the “more fat mass than controls (normalized mean fat mass)” value in assay [5] stood at 8.1±3.4%.

The values above are taken from patent US9603876B2, “Compositions and methods for restoring gastrointestinal microbiota following antibiotic treatment” (New York University, priority 2008, dated 2017).
